Results: patent US20090264384A1, “INDOLE, BENZIMIDAZOLE, AND BENZOLACTAM BORONIC ACID COMPOUNDS, ANALOGS THEREOF AND METHODS OF USE THEREOF” (Nuada, Inc., priority 2004, published 2009)

Key:
[1] = target: T1, Choline transporter (Rattus norvegicus, UniProt Q9JMD7); experiment: Choline transporter binding assay; conditions: reference compound
T1 construct: rat striatum; from tissue; host or cells: rat striatum
T1 sequence (Q9JMD7 1-580): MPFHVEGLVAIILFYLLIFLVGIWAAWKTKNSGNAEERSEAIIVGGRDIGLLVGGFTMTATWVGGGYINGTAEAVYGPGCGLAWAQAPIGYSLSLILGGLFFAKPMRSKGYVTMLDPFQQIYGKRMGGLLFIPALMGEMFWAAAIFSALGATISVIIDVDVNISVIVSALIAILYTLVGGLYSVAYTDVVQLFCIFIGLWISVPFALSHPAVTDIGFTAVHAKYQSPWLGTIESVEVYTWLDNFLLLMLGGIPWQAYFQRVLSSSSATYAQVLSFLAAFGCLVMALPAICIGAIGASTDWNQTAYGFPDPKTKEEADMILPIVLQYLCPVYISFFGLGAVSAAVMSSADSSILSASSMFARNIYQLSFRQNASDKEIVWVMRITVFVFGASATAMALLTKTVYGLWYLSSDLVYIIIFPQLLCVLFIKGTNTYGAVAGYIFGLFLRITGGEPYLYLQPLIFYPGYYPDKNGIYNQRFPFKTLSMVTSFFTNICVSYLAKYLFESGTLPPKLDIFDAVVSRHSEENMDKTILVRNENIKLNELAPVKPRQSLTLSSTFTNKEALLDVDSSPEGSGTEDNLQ

[2] = test system: P2Y; experiment: P2Y binding assay; set-up: species or system rat; conditions: reference compound
[3] = test system: H3; experiment: H3 binding assay; set-up: species or system rat
[4] = target: Ca^2+ channel (L, verapamil site) (phenylalkylamines); experiment: Ca^2+ channel (L, verapamil site) binding assay; set-up: species or system rat
[5] = target: T2, B2(h) (Homo sapiens, UniProt P30411); experiment: B2(h) binding assay
T2 construct: expressed in transfected cells; host or cells: CHO cells

[6] = target: T3, V2(h) (Homo sapiens, UniProt P30518); experiment: V2(h) binding assay
T3 construct: expressed in transfected cells; host or cells: CHO cells

[7] = target: Progesterone(h) (PR); experiment: Progesterone(h) (PR) binding assay; set-up: species or system human
[8] = target: T4, Phosphodiesterase 2(h) (Homo sapiens, UniProt O00408); experiment: Phosphodiesterase 2(h) enzyme assay; format: biochemical; conditions: Phosphodiesterase 2(h)
T4 construct: differentiated U-; endogenous in cells; host or cells: differentiated U-937 cells
T4 sequence (O00408 whole entry): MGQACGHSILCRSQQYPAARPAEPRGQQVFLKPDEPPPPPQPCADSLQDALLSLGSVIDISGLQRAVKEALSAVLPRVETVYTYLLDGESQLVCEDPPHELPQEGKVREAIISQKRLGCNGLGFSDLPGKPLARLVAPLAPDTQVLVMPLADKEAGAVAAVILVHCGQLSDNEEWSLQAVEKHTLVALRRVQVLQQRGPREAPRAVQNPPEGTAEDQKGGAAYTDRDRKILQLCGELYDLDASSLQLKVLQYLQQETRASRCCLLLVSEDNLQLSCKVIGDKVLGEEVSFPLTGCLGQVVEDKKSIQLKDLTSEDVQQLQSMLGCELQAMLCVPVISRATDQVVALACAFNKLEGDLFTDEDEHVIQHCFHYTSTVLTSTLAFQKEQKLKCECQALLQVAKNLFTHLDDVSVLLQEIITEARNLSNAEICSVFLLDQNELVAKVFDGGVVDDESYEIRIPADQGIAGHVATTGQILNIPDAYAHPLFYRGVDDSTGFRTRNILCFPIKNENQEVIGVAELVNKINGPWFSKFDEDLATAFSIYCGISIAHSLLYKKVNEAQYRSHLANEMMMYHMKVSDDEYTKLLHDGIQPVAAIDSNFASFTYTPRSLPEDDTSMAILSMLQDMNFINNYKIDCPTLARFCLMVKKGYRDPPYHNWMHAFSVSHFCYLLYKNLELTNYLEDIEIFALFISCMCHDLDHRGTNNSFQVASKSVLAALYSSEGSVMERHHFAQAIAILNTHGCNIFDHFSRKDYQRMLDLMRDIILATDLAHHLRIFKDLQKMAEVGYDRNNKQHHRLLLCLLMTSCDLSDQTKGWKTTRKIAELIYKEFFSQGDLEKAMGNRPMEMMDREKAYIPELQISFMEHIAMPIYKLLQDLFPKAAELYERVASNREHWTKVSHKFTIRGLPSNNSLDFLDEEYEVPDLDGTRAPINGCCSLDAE

[9] = target: T5, CRF1 (Rattus norvegicus, UniProt P35353); experiment: CRF1 binding assay; conditions: Hill coefficient, reference compound
T5 construct: from tissue; host or cells: rat pituitary gland
T5 sequence (P35353 24-415): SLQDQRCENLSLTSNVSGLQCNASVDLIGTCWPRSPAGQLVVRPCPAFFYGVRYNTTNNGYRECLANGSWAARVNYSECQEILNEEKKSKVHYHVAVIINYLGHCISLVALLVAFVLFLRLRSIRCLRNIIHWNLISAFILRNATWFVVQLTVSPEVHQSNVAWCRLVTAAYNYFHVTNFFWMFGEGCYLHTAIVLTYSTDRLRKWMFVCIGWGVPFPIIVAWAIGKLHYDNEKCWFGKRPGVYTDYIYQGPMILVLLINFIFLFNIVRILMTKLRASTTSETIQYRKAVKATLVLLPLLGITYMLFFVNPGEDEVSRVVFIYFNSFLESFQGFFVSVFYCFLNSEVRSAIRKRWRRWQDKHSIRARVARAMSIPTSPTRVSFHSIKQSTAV

[10] = target: T6, AT2(h) (Homo sapiens, UniProt P50052); experiment: AT2(h) binding assay; conditions: Hill coefficient, reference compound
T6 construct: expressed in transfected cells; host or cells: Hela cells

[11] = target: T7, AT1(h) (Homo sapiens, UniProt P30556); experiment: AT1(h) binding assay; conditions: Hill coefficient, reference compound
T7 construct: expressed in transfected cells; host or cells: CHO cells
T7 sequence (P30556 whole entry): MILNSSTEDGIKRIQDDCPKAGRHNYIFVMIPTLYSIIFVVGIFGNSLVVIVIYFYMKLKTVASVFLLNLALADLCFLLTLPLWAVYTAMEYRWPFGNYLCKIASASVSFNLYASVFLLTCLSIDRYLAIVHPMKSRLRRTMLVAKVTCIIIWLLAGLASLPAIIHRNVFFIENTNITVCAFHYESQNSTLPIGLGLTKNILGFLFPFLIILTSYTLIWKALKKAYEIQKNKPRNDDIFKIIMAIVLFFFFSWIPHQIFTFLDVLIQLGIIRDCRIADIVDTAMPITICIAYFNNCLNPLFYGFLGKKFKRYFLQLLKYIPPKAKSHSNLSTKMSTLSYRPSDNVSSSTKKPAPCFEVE

[12] = test system: GABA (non-selective); format: binding, rat; conditions: Hill coefficient, reference compound
[13] = target: T8, NK3(h) (Homo sapiens, UniProt P29371); experiment: NK3(h) binding assay; conditions: Hill coefficient, reference compound
T8 construct: expressed in transfected cells; host or cells: CHO cells

[14] = target: N (neuronal) (α-BGTX-insensitive) (Rattus norvegicus, UniProt P09483+P12390); experiment: N (neuronal) (α-BGTX-insensitive) binding assay; conditions: Hill coefficient, reference compound
[15] = target: T9, ETB(h) (Homo sapiens, UniProt P24530); experiment: ETB(h) binding assay; conditions: Hill coefficient, reference compound
T9 construct: expressed in transfected cells; host or cells: CHO cells
T9 sequence (P24530 27-442): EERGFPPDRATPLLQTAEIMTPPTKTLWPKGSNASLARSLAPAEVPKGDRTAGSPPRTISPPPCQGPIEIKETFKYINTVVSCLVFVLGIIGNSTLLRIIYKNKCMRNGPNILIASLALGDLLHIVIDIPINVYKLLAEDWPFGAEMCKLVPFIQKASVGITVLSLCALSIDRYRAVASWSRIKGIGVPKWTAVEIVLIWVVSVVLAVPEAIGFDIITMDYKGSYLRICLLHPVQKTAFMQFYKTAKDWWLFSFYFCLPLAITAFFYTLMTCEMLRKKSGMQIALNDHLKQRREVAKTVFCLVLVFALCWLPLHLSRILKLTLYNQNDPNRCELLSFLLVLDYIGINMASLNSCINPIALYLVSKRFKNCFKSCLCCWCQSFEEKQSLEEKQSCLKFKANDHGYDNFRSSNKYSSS

[16] = target: T10, Tyrosine hydroxylase (Rattus norvegicus, UniProt P04177); experiment: Tyrosine hydroxylase enzyme assay; format: biochemical; conditions: Tyrosine hydroxylase
T10 construct: rat striatum; from tissue; host or cells: rat striatum
T10 sequence (P04177 whole entry): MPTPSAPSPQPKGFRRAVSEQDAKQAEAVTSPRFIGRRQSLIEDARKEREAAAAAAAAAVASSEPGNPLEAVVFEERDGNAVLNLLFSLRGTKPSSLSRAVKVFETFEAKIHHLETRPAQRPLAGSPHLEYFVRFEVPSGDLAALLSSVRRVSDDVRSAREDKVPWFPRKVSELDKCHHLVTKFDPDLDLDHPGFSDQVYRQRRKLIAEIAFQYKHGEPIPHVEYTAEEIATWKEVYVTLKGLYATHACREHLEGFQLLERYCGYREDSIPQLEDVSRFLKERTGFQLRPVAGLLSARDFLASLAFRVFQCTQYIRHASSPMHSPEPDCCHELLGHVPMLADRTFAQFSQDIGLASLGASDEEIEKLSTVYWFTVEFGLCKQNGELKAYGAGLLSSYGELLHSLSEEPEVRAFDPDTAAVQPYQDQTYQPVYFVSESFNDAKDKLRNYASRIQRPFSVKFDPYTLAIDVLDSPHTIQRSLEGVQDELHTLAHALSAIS

[17] = test system: Y (non-selective); experiment: Y (non-selective) binding assay; set-up: species or system rat; conditions: reference compound
[18] = target: T11, NK2(h) (Homo sapiens, UniProt P21452); experiment: NK2(h) binding assay
T11 construct: expressed in transfected cells; host or cells: CHO cells
T11 sequence (P21452 whole entry): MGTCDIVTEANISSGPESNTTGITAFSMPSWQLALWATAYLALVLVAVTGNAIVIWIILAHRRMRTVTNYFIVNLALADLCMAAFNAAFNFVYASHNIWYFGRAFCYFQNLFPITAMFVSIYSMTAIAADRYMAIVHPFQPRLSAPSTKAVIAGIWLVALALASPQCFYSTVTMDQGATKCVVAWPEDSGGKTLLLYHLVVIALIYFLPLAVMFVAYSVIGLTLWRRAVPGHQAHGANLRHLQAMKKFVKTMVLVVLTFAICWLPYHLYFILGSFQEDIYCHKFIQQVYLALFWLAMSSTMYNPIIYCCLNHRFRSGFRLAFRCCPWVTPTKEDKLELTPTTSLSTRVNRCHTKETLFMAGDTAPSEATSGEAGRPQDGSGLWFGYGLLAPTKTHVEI

[19] = target: K^+V channel; experiment: K^+V channel binding assay; set-up: species or system rat
[20] = test system: 5-HT (non-selective); experiment: 5-HT (non-selective) binding assay; set-up: species or system rat; conditions: Hill coefficient, reference compound
[21] = target: T12, H2(h) (Homo sapiens, UniProt P25021); experiment: H2(h) binding assay; conditions: Hill coefficient, reference compound
T12 construct: expressed in transfected cells; host or cells: CHO cells

[22] = test system: TRH; experiment: TRH binding assay; set-up: species or system rat; conditions: reference compound
[23] = test system: σ (non-selective); experiment: σ (non-selective) binding assay; set-up: species or system rat
[24] = target: T13, Androgen(h) (AR) (Homo sapiens, UniProt P10275, T878A); experiment: Androgen(h) (AR) binding assay
T13 construct: LNCaP cells; endogenous in cells; host or cells: LNCaP cells (cytosol)
T13 sequence (P10275 whole entry T878A): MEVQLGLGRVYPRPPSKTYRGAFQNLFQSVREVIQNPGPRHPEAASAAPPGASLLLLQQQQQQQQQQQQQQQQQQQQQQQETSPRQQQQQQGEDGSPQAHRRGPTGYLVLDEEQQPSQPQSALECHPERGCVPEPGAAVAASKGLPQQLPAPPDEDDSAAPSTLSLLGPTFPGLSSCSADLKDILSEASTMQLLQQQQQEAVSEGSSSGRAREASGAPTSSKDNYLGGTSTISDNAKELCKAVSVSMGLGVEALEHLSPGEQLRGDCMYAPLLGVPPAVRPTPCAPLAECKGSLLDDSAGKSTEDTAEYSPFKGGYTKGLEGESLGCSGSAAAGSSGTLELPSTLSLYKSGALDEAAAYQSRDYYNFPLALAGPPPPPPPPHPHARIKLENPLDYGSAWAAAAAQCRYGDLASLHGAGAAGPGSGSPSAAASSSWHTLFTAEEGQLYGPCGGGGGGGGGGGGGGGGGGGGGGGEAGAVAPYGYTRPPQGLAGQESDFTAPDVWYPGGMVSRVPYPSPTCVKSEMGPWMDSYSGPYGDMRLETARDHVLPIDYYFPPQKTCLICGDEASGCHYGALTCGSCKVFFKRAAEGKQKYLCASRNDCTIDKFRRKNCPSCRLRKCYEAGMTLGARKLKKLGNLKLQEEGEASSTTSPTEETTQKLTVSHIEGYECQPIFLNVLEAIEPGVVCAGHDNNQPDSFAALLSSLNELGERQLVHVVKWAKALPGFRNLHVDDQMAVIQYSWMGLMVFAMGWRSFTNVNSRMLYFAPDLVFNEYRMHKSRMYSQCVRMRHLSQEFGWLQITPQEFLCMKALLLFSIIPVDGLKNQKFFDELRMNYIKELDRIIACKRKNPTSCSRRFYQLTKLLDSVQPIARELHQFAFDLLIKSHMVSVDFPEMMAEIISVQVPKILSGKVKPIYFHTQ

[25] = target: T14, D2S(h) (Homo sapiens, UniProt P14416); experiment: biochemical; format: binding
T14 construct: expressed in transfected cells; host or cells: CHO cells
T14 sequence (P14416 1-414 isoform P14416-2): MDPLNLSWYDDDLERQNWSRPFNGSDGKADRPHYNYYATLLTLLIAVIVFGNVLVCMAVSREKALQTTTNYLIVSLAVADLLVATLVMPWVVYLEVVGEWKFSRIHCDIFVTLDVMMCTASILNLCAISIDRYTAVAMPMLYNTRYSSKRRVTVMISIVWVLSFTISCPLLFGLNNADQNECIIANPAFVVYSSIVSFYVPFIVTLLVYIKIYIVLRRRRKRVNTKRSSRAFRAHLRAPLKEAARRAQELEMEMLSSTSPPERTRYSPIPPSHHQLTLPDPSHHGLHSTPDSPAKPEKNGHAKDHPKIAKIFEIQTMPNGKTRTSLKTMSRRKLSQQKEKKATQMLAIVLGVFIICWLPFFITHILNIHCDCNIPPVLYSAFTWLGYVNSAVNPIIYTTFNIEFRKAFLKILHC

[26] = target: T15, ATPase (Na^+/K^+) (Canis lupus familiaris, UniProt P50997); experiment: ATPase (Na^+/K^+) enzyme assay; format: biochemical, dog; conditions: ATPase (Na^+/K^+)
T15 construct: dog kidney; from tissue; host or cells: dog kidney

[27] = test system: BZD (central); experiment: BZD (central) binding assay; set-up: species or system rat; conditions: Hill coefficient, reference compound
[28] = target: T16, ETA(h) (Homo sapiens, UniProt P25101); experiment: ETA(h) binding assay
T16 construct: expressed in transfected cells; host or cells: CHO cells

[29] = target: T17, GABA transaminase (Rattus norvegicus, UniProt P50554); experiment: GABA transaminase enzyme assay; format: biochemical; conditions: GABA transaminase
T17 construct: rat brain; from tissue; host or cells: rat brain
T17 sequence (P50554 28-500): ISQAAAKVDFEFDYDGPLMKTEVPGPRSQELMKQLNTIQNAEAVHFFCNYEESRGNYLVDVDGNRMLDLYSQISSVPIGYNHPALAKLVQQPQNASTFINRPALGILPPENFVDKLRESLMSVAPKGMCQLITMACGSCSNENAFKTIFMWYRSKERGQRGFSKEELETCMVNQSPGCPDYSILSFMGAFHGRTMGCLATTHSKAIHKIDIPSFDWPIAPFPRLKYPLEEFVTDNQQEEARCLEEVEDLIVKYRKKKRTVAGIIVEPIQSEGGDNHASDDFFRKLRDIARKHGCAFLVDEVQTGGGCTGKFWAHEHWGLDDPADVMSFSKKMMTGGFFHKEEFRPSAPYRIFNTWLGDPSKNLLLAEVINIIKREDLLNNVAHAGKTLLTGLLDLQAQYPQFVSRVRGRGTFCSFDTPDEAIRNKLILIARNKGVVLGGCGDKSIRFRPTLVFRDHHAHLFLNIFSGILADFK

[30] = target: T18, β1(h) (Homo sapiens, UniProt P08588); experiment: β1(h) binding assay; conditions: Hill coefficient, reference compound
T18 construct: expressed in transfected cells; host or cells: HEK-293 cells

[31] = test system: M (non-selective); experiment: M (non-selective) binding assay; set-up: species or system rat
[32] = target: T19, NK1(h) (Homo sapiens, UniProt P25103); experiment: NK1(h) binding assay; conditions: Hill coefficient, reference compound
T19 construct: NK1(h); U-373MG cells; [Sar^9,Met(O2)^11]-SP; Heuillet et al. (1993); endogenous in cells; host or cells: U-373MG cells

Compound: C[N+]1(C)CCOC(O)(c2ccc(-c3ccc(C4(O)C[N+](C)(C)CCO4)cc3)cc2)C1.[Br-].[Br-] (centres unmarked) [hemicholinium-3]
- nH ([1]; Hill coefficient): 0.7
- IC50 [1]: 8 nM
- Ki ([1]; Cheng Prusoff): 5.5 nM

Compound: Nc1ncnc2c1ncn2[C@H]1C[C@H](O)[C@@H](COP(O)(=S)OP(=O)(O)OP(=O)(O)O)O1 (some centres unmarked) [dATPαS]
- nH ([2]; Hill coefficient): 1.3
- IC50 [2]: 100 nM
- Ki ([2]; Cheng Prusoff): 52 nM

Compound: C[C@@H](N)Cc1cnc[nH]1 [(R)a-Me-histamine, (R)α-Me-histamine, reference compound]
- nH [3]: 1.0

Compound: COc1ccc(CCN(C)CCCC(C#N)(c2cc(OC)c(OC)c(OC)c2)C(C)C)cc1OC (centres unmarked) [D 600]
- Ki [4]: 0.84 nM
- nH [4]: 0.6

Compound: NPC 567 [reference compound]
- nH [5]: 0.6

Compound: AVP [reference compound]
- nH [6]: 0.9

Compound: CCC(=O)[C@@]1(C)CC[C@H]2[C@@H]3CCC4=CC(=O)CCC4=C3CC[C@@]21C [R 5020]
- IC50 [7]: 8.9 nM
- Ki [7]: 3 nM
- nH [7]: 1.1

Compound: CCCCCC[C@@H]([C@@H](C)O)n1cnc2c(N)ncnc21 (racemic) [EHNA]
- nH ([8]; Hill coefficient): 0.4
- IC50 ([8]; reference compound): 4100 nM

Compound: CC[C@H](C)[C@H](NC(=O)[C@@H](NC(=O)[C@H](CCC(=O)O)NC(=O)[C@H](CCSC)NC(=O)[C@H](CC(C)C)NC(=O)[C@H](CCCCN)NC(=O)[C@H](CCCNC(=N)N)NC(=O)[C@H](CC(N)=O)NC(=O)[C@H](CO)NC(=O)[C@H](Cc1c[nH]cn1)NC(=O)[C@H](C)NC(=O)[C@H](CCC(N)=O)NC(=O)[C@H](CCC(N)=O)NC(=O)[C@H](C)NC(=O)[C@H](CC(C)C)NC(=O)[C@H](CCC(N)=O)NC(=O)[C@H](CCC(=O)O)NC(=O)[C@H](C)NC(=O)[C@H](CCCNC(=N)N)NC(=O)[C@H](C)NC(=O)[C@H](CCSC)NC(=O)[C@H](CCC(=O)O)NC(=O)[C@H](CC(C)C)NC(=O)[C@@H](NC(=O)[C@H](CCC(=O)O)NC(=O)[C@H](CCCNC(=N)N)NC(=O)[C@H](CC(C)C)NC(=O)[C@H](CC(C)C)NC(=O)[C@H](Cc1c[nH]cn1)NC(=O)[C@H](Cc1ccccc1)NC(=O)[C@@H](NC(=O)[C@H](CC(C)C)NC(=O)[C@H](CC(=O)O)NC(=O)[C@H](CC(C)C)NC(=O)[C@H](CO)NC(=O)[C@@H](NC(=O)[C@@H]1CCCN1C(=O)[C@@H]1CCCN1C(=O)[C@H](CCC(=O)O)NC(=O)[C@H](CCC(=O)O)NC(=O)[C@@H](N)CO)[C@@H](C)CC)[C@@H](C)O)C(C)C)[C@@H](C)CC)C(N)=O [CRF, reference compound]
- nH [9]: 0.6

Compound: CNCC(=O)N[C@@H](CCCN=C(N)N)C(=O)N[C@H](C(=O)N[C@@H](Cc1ccc(O)cc1)C(=O)N[C@H](C(=O)N[C@@H](Cc1cnc[nH]1)C(=O)N1CCC[C@H]1C(=O)N[C@@H](C)C(=O)O)C(C)C)C(C)C [saralasin, reference compound]
- nH [10]: 0.8
- nH [11]: 1.1

Compound: NCCCC(=O)O [GAGA, GABA, reference compound]
- nH [12]: 1.3

Compound: CC[C@H](NC(=O)c1c(C)c(-c2ccccc2)nc2ccccc12)c1ccccc1 [SB 222200, reference compound]
- nH [13]: 1.1

Compound: CN1CCCC1c1cccnc1 (centres unmarked) [nicotine, reference compound]
- nH [14]: 1.1

Compound: endothelin-3 [endothelia-3, reference compound]
- nH [15]: 2.4

Compound: N[C@@H](Cc1ccc(O)c(I)c1)C(=O)O [3-iodo L-tyrosine]
- nH ([16]; Hill coefficient): 1.1
- IC50 ([16]; reference compound): 990 nM

Compound: NPY
- nH ([17]; Hill coefficient): 1.3
- IC50 [17]: 0.99 nM

Compound: [N1e^10]-NKA(4-10) [reference compound]
- nH [18]: 0.7

Compound: α-dendrotoxin
- Ki [19]: 1.1 nM
- nH [19]: 3.1

Compound: NCCc1c[nH]c2ccc(O)cc12 [serotonin, reference compound]
- nH [20]: 0.9

Compound: CN/C(=N/CCSCc1nc[nH]c1C)NC#N [cimetidine, reference compound]
- nH [21]: 0.9

Compound: TRH
- nH ([22]; Hill coefficient): 0.9
- IC50 [22]: 49 nM
- Ki ([22]; Cheng Prusoff): 30 nM

Compound: O=C(CCCN1CCC(O)(c2ccc(Cl)cc2)CC1)c1ccc(F)cc1 [haloperidol, reference compound]
- nH [23]: 0.6

Compound: C[C@]1(O)CC[C@H]2[C@@H]3CCC4=CC(=O)CCC4=C3C=C[C@@]21C [methyltrienolone, reference compound]
- nH [24]: 1.5

Compound: (+)butaclamol [reference compound]
- nH [25]: 1.2

Compound: C[C@@H]1O[C@@H](O[C@H]2C[C@@H](O)[C@]3(CO)[C@H]4[C@H](O)C[C@]5(C)[C@@H](C6=CC(=O)OC6)CC[C@]5(O)[C@@H]4CC[C@]3(O)C2)[C@H](O)[C@H](O)[C@H]1O [ouabain]
- nH ([26]; Hill coefficient): 1.2
- IC50 ([26]; reference compound): 920 nM

Compound: CN1C(=O)CN=C(c2ccccc2)c2cc(Cl)ccc21 [diazepam, reference compound]
- nH [27]: 1.2

Compound: endothelin-1 [endothelia-1, reference compound]
- nH [28]: 1.1

Compound: NOCC(=O)O [AoAA]
- nH ([29]; Hill coefficient): 1.1
- IC50 ([29]; reference compound): 210 nM

Compound: CC(C)NCC(O)COc1ccc(CC(N)=O)cc1 (centres unmarked) [atenolol, reference compound]
- nH [30]: 0.7

Compound: CN1[C@@H]2CC[C@H]1C[C@@H](OC(=O)C(CO)c1ccccc1)C2 (some centres unmarked) [atropine, reference compound]
- nH [31]: 1.2

Compound: [Sar^9,Met(O2)^11]-SP [reference compound]
- nH [32]: 0.9
